In the OPERA property sets (Mansouri et al. 2018) one finds logP data, which are given here for 106 compounds.

Where a SMILES comes first, the peptide text is derived from it.

By logP is commonly meant the decadic logarithm of the partition coefficient of the neutral form, usually between octanol and water. A higher logP goes with higher lipophilicity. The compound `Cc1oc2nc3oc(=O)ccc3c(C)c2c1C` showed a logP of 2.19.
Turning to `CC(C)NC(=NC#N)NS(=O)(=O)c1cnccc1Nc1cccc(I)c1`, the logP is 2.51.
For `Cc1ccc(-n2c(Cc3c(C)[nH]c4ccccc34)n[nH]c2=S)cc1` the value was 3.
For `Cc1oc2nc3oc(=O)c(C)c(C)c3cc2c1C` the value was 2.71; for `CC(C)CC(NC(=O)CNC(=O)C(NC(=O)C(Cc1ccccc1)NC(=O)C(N)C(C)C)C(C)C)C(=O)O` (stereo unspecified) (H-VFVGL-OH; configuration not given here), -0.97.
For `Cc1cn(C2C=CC(COP3(=O)OCc4cc(Cl)ccc4O3)O2)c(=O)[nH]c1=O` (stereo unspecified) the value was 0.88.
With `CCCNc1[nH]cnc2ncnc1-2`, the lipophilicity (logP) came out at 1.44.
The same measure for `CC(=NNC(=O)c1ccccc1)c1cnccn1`: 1.9.
The same measure for `COC(=O)C=CCn1cc([N+](=O)[O-])nc1C`: 0.16.
The same measure for `CCCCc1cnc(C2=NC(C)(C(C)C)C(=O)N2)c(C(=O)O)c1` (stereo unspecified): 1.99; for `COc1ccc(CCNCC(O)COc2ccc(-c3nccs3)cc2)cc1OC` (stereo unspecified): 2.5.
`CN(C)CCOC(=O)c1ccc(S(C)(=O)=O)cc1`: the logP was determined as 0.45.
For `CCC(C)C(N)C(=O)NC(C(=O)NC(C(=O)O)C(C)O)C(C)CC` (stereo not drawn) (H-Ile-Ile-Thr-OH; configuration not given here) the value was -2.23.
The same measure for `c1ccc(Cn2cnc3ccccc32)cc1`: 2.91; for `Cc1cc(=O)[nH]nc1/C=C/c1ccc(-n2ccnc2)cc1`: 1.71; for `COc1ccc(O)c(C2=NC(C(=O)O)CS2)c1` (stereo unspecified): 1.6.
Take `CC(C(=O)OC1CCCCC1)S(=O)(=O)c1ccc([N+](=O)[O-])cc1` (stereo unspecified): the logP turned out to be 2.82.
The same measure for `CCN(CC)CC(=O)Nc1ccccc1`: 2.49; for `CN1CC(O)N(C(=O)NC(C)(C)C)C1=O` (stereo unspecified): 1.38.
The same measure for `C=C1C=CCC(C)=CCC1`: 4.17.
For `CCN(CC)CCNC(=O)c1c(C)cccc1C` the value was 2.22.
For `C[C@@H]1N=C(c2ccccc2Cl)c2cc([N+](=O)[O-])ccc2NC1=O`, the logP was 2.72.
For `CCCc1nc(N)nc(N2CCCCC2)n1` the value was 2.55; for `NC(Cc1c[nH]c2ccccc12)C(=O)NC(Cc1ccccc1)C(=O)O` (stereo unspecified), -0.47.
For `O=C(O)CCCCCON=C(c1cncnc1)c1cccc(C(F)(F)F)c1` the value was 3.65.
The same measure for `N=C1C=CC(=C(c2ccc(N)cc2)c2ccc(N)cc2)C=C1`: -0.21.
Compound `COc1cc(OC)nc(Oc2cccc(Oc3ccccc3)c2C(=O)O)n1` displayed a logP of 3.43.
For `CCCN(C)CC(=O)Nc1c(C)cccc1C` the value was 2.28; for `O=C1C=C(N2CCCCC2)CN1c1ccc(Cl)cc1`, 3.
The same measure for `O=C(O)CCCCON=C(c1ccccc1)c1ccncn1`: 2.27; for `COc1cc(OS(C)(=O)=O)ccc1-c1cn2cccnc2n1`: 1.05; for `Clc1ccc(/C=N/OCCc2nc(-c3ccccc3)n[nH]2)cc1`: 2.83.
The same measure for `Oc1ccc(CNc2ncnc3nc[nH]c23)cc1`: 1.55; for `COc1ccc2cc(C(C)C(=O)OCCCCOC(C)=O)ccc2c1` (stereo unspecified): 3.3; for `CCCOc1cccc(-c2c[nH]c(SCCc3c[nH]cn3)n2)c1`: 3.7.
Take `CC(=O)c1cccc(CNc2[nH]cnc3ncnc2-3)c1`: the logP amounted to 1.73.
For `CC(C)n1cccc(O)c1=O` the value was 0.79.
The same measure for `O=C(NC1CCCCC1)NS(=O)(=O)c1cnccc1NC1CCCCCCC1`: 4.96; for `Fc1ccccc1CNc1[nH]cnc2ncnc1-2`: 2.27.
The compound `CCC(C)C(NC(=O)C(CC(C)C)NC(=O)C(NC(=O)C(N)CCSC)C(C)CC)C(=O)O` (stereo unspecified) (H-MILI-OH; configuration not given here) returned a logP of -0.49.
In turn, `Cc1coc2cc3oc(=O)ccc3cc12` yielded a logP of 2.47.
The same measure for `COc1ccc(C2Cc3c(ccc(Br)c3OC)N(CCN(C)C)C(=O)C2OC(C)=O)cc1` (stereo unspecified): 4.4; for `COC(=O)c1c(N2CCOCC2)c(-c2ccc(Cl)cc2)cn1C(=O)N1CCOCC1`: 3.1; for `O=c1[nH]c2cc(Cl)ccc2c(O)c1-c1cccc(Cc2ccc(CCN3CCOCC3)cc2)c1`: 5.2.
The same measure for `CCOC(=O)c1cccc(N(C)C)c1`: 3.19; for `CCc1ccc(OCC2CN=C(N)O2)cc1` (stereo unspecified): 2.27.
The same measure for `c1cc2cc3ccc4c(c3nc2c2c1NCOC2)COCN4`: 2.17; for `c1ccc2c(c1)OCCOCCOc1ccccc1OCCO2`: 2.21.
In turn, `CC(C)OC(=O)CC(C(=O)OC(C)C)S(=O)(=O)c1ccc([N+](=O)[O-])cc1` (stereo unspecified) had a lipophilicity (logP) of 2.18.
The same measure for `CC(=O)N(O)CCCCCNC(=O)CCC(=O)N(O)CCCCCNC(=O)CCC(=O)N(O)CCCCCNC(=O)CCC(=O)O`: -0.51; for `CCc1c(C)nc2c3c(c(C(=O)N(C)C)cn12)CCC(c1ccccc1)O3` (stereo unspecified): 3.2.
Compound `O=[N+]([O-])c1ncn(C2OC(CO)C(O)C2O)n1` (stereo unspecified) had a logP of -1.54.
For `c1ccc(CCCc2ccccc2)cc1` the value was 3.43.
For `NC(Cc1ccc(Cl)cc1)C(=O)O` (stereo unspecified) the value was -0.47; for `Cc1ccc(C(=O)OCCCn2ccc(=O)c(O)c2C)cn1`, 0.28; for `CC1CC2C3CCC4=CC(=O)C=CC4(C)C3(F)C(O)CC2(C)C1(O)C(=O)COC(=O)CC1CCCCC1` (stereo unspecified), 4.95.
For `CN(C)CCOC(=O)c1ccc(C(F)(F)F)cc1` the value was 2.88; for `CC(=O)OCC1=C(C(=O)O)N2C(=O)[C@@H](NC(=O)Cc3ccccc3)[C@H]2SC1`, 0.2; for `O=c1cc(-c2ccccc2)oc2c(Cl)cc(Cl)cc12`, 4.76.
As for `COc1ccc(CCNCC(O)COc2ccc(-c3nc(Br)c[nH]3)cc2)cc1OC` (stereo unspecified), the logP is 3.2.
For `COC(=O)C(=Cc1cnc(SC(C)=O)n1C)C(=O)OC` the value was -0.43.
Regarding `Nc1nc(N)c2c(Cl)cccc2n1`, the logP turned out to be 1.72.
As for `CC1CCC2OC2(C)C12CCC(C(C)(C)O)C2` (stereo unspecified), the logP stood at 2.7.
The same measure for `Cc1c(O)c(=O)ccn1CCCOC(=O)c1cccnc1`: -0.25.
The same measure for `C=CC(=O)OCCCOC(=O)C=C`: 0.87; for `CC(C)CC(N)C(=O)NC(CC(C)C)C(=O)NC(CC(C)C)C(=O)NC(Cc1ccccc1)C(=O)O` (stereo unspecified) (H-LLLF-OH; configuration not given here): 0.24.
The same measure for `Cc1nc2ccccc2c(=O)n1CC(=O)NNc1ccccc1`: 1.34; for `CC(C)NC(=NC#N)NS(=O)(=O)c1cnccc1Nc1cccc(Cl)c1`: 2.14; for `CN(C)c1cccc2nc(N)nc(N)c12`: 1.65.
The compound `CC(=O)OCOC(=O)N(C)N=Nc1ccc(Br)cc1` gave a logP of 3.64.
For `O=S(=O)(NC(=S)NC1CCCCC1)c1cnccc1NC1CCCCCC1` the value was 4.71.
The same measure for `CCCCCCNc1ncnc2c1ncn2C1OC(CO)C(O)C1O` (stereo unspecified): 2.24; for `CCCC(=NOCC)C1=C(O)CC2(CCCC2)OC1=O`: 3.22.
For `Cc1cc(=O)oc2c1ccc1occ(C)c12` the value was 3.08; for `COC(=O)C(C)=CC1C(C(=O)OCc2cccc(C(=O)c3ccccc3)c2)C1(C)C` (stereo unspecified), 5.45; for `OC(CCNC1CCCCC1)COc1cccc2ccccc12` (stereo unspecified), 3.99.
With `NC(=O)C(Cc1c[nH]c2ccccc12)NC(=O)C(N)Cc1ccccc1` (stereo not drawn) (H-Phe-Trp-NH2; configuration not given here), the logP amounted to 1.38.
For `CCOCCOCCOCCCCCNC(=O)NC12CC3CC(CC(C3)C1)C2` the value was 3.6; for `COc1ccc(C2Cc3c(OC)cccc3N(CCN(C)C)C(=O)C2C)cc1` (stereo unspecified), 4.6.
For `Cc1cccc(C=[N+]([O-])C(C)(C)C)c1` the value was 1.6; for `c1ccc2c(c1)Cc1ncccc1-2`, 2.59; for `COc1cccc(CCl)c1`, 2.68.
The same measure for `CC(C)CCCNc1ncnc2c1ncn2C1OC(CO)C(O)C1O` (stereo unspecified): 2.07; for `CCCCN(CCO)CCCC`: 2.65; for `CCOC(=O)c1cn2c(C)c(C)nc2c2c1CCC(c1ccccc1)O2` (stereo unspecified): 5.5.
`CCOC(=O)C1=C(C)NC(C)=C(C(=O)OC)C1c1ccc(OC)c(OC)c1` (stereo unspecified) displayed a logP of 3.6.
The same measure for `CCS(=O)(=O)n1cc(-c2ccc(Cl)cc2)c(N2CCOCC2)c1C(=O)OC`: 4.2; for `CC(C)(CO)N=O`: -0.52; for `COc1ccc([N+](=O)[O-])c(C)c1`: 2.32.
The same measure for `CCOC(=O)C(C)(Cc1ccccc1)S(=O)(=O)c1ccc([N+](=O)[O-])cc1` (stereo unspecified): 3.4.
For `CCNC(=O)NS(=O)(=O)c1cnccc1Nc1ccccc1C` the value was 3.06; for `CC(C)CC(N)C(=O)NC(CC(C)C)C(=O)N1CCCC1C(=O)O` (stereo not drawn) (H-Leu-Leu-Pro-OH; configuration not given here), -1.58.
Regarding `CSCCC(NC(=O)C(Cc1ccccc1)NC(=O)CNC(=O)CNC(=O)C(N)Cc1ccc(O)cc1)C(=O)O` (stereo unspecified), the logP is -1.39.
Compound `CON(C)C(=O)Nc1cccc(CO)c1` yielded a logP of 0.62.
For `O=C1CN=C(c2ccc(F)cc2)c2ccccc2N1` the value was 2.38; for `COc1cc(Cl)ccc1O`, 2.15.
For `N#CCCOC1Cc2c(O)cc(O)cc2OC1c1ccc(O)c(O)c1` (stereo unspecified) the value was 0.96.
The same measure for `O=C1C=C(N2CCOCC2)CN1c1ccc(F)c(Cl)c1`: 2.2; for `CC(C)CNc1[nH]cnc2ncnc1-2`: 1.92.
Turning to `CCC1(c2ccncc2)CCC(=O)NC1=O` (stereo unspecified), the logP amounted to 0.58.
The same measure for `COc1coc(CSC(=S)N(C)C)cc1=O`: 1.14; for `COC(=O)c1ccc2ccc3cccc4ccc1c2c34`: 4.73; for `CCCCC(=O)C(CCCCOc1c(C)cc(C)cc1[N+](=O)[O-])n1cncn1` (stereo unspecified): 3.9.
In the case of `O=c1cc(CCl)oc(Cl)c1O`, the logP amounted to 0.95.
For `CN1CC(O)N(C(=O)NC2CCCC2)C1=O` (stereo unspecified) the value was 1.47; for `CC(=O)OC1C(CCl)OC(n2cc(F)c(=O)[nH]c2=O)C1OC(C)=O` (stereo unspecified), 0.38.
